Test results reported in patent US20090247770A1, “PROCESS FOR MAKING LACTAM TACHYKININ RECEPTOR ANTAGONISTS” (priority 2006, published 2009).
Structures can show the parent of a compound that is named as a salt. Where two headings read alike, the source gives them in different places.

Key:
[1] = Solid state physical stability (form conversion) of crystalline salts; assay type: physicochemical; settings: No form conversion after 1 week at 40° C./ambient RH, 40° C./75% RH, and 80° C.
[2] = Solid state chemical stability of crystalline salts; assay type: physicochemical
[3] = Relative thermodynamic stability of crystal forms; assay type: physicochemical; settings: comparison of besylate crystal forms
From the text: The benzyloxycarbonyl (Cbz) group of 16 was cleaved to give 1 by a noble transition metal, such as Pd/C, […], Pt/C, catalyzed hydrogenation in an alcoholic solvent such as methanol, ethanol, or the like, or by acidic solvolysis with a hydrogen halide such as HCl, HBr, or HI or an equivalent such as combination of a metal or an ammonium halide and an acid trifluoroacetic acid, methanesulfonic acid, or the like in organic solvent such as acetonitrile, toluene, or acetic acid at a temperature from about 0° C. to about 60° C. If this deprotection of Cbz group was carried out under acidic condition, 1 could be obtained from 14a,b or 15a,b in a one-pot manner. Benzyl halide, which was a side product of deprotection of Cbz group, was easily removed from the reaction mixture by back-extraction with heptane. Free base of 1 was difficult to be extracted from the aqueous layer to organic layer because of its amphipathic physical property. […] Crude free base was purified by crystallization as a benzenesulfonate salt from IPA-IPAc-heptane solvent system. The benzenesulfonate salt has two crystal forms Form I or II. […] The benzenesulfonate salt can be recrystallized from acetonitrile and alcohol such as methanol, ethanol, or isopropanol, if necessary.

[4] = Hygroscopicity of crystalline salts of the compound of Formula Ia; assay type: physicochemical

Compound | Solid State Physical Stability [1] | melting point | Solid State Chemical Stability [2] | Thermodynamic stability relative to other crystal form [3] | Hygroscopicity (25° C.) [4] | Solid State Chemical Stability ([2]; listed as anhydrous form I) | Solid State Physical Stability ([1]; listed as anhydrous form I)
C[C@@H](O[C@H]1CC[C@@H]([C@H]2C[C@@](C)(N)C(=O)N2)[C@@H]1c1ccc(F)cc1)c1cc(C(F)(F)F)cc(C(F)(F)F)c1 [Succinate] | Stable |  |  |  |  |  | 
C[C@@H](O[C@H]1CC[C@@H]([C@H]2C[C@@](C)(N)C(=O)N2)[C@@H]1c1ccc(F)cc1)c1cc(C(F)(F)F)cc(C(F)(F)F)c1 (as salt: succinate) (hydrate or solvate) |  | 187 °C |  |  |  |  | 
C[C@@H](O[C@H]1CC[C@@H]([C@H]2C[C@@](C)(N)C(=O)N2)[C@@H]1c1ccc(F)cc1)c1cc(C(F)(F)F)cc(C(F)(F)F)c1 [Besylate Anhydrous Form II] | Stable^3 |  | Stable | more thermodynamically stable than Form 1 |  |  | 
C[C@@H](O[C@H]1CC[C@@H]([C@H]2C[C@@](C)(N)C(=O)N2)[C@@H]1c1ccc(F)cc1)c1cc(C(F)(F)F)cc(C(F)(F)F)c1 [Besylate Anhydrous Form I] | Stable^3 |  | Stable | more thermodynamically stable than form II | consistently non-hygroscopic | physically and chemically stable | physically and chemically stable
